# Patent US10800741B2 (ANCUREALL PHARMACEUTICAL (SHANGHAI) CO., LTD., priority 2017, dated 2020)
# Key:
# RS4:11 = assay: In vitro growth inhibition of FLT3 wild type overexpressing cells RS4:11; format: cell-based; settings: Homo sapiens, cells over expressing FLT3 wild-type
# Description: (§1) Adherent cells were digested with 0.25% trypsin-EDTA (Gibco). Suspension culture cells were collected by centrifugation (1700 rpm, 3 minutes). The supernatant was discarded and the cells were counted. According to each cell growth cycle, different concentrations of cells were prepared (5˜10×10^4 cells per ml), and inoculated to 96-well plates (Corning), with 100 μl per well, and incubated overnight at 37° C., 5% CO2. The next day, the test compound was added to the cultured cells (2 wells in parallel). The final concentration of the solvent was less than 1/1,000. The cells were further cultured for 3 to 5 days and assayed by MTT.
# (§2) The MTT test reagent was a Dojindo CCK8 kit and the Microplate Reader was a THERMO […] FC instrument.
# (§3) The adherent cells were taken out from the cell culture medium, and immediately added to a freshly prepared complete medium containing 10% CCK8 (5% FBS), 100 ul per hole. The suspended cells were directly added to a CCK8 reagent until reaching a final concentration of 10% and cultured for 1 to 4 hours. When a dark yellow color could be observed in the solvent control wells, the absorbance value at OD450 nm was measured and the cell growth rate was calculated according to the following formula: Cell Growth Rate (%)=100×(T−T0)/(C−T0)
# (§4) T=optical density of drug-treated cell wells−optical density of blank control wells; T0=optical density of cell wells before drug treatment−optical density of blank control wells; C=optical density of solvent control wells−optical density of blank control wells. […] The experiments were repeated 1 to 3 times and a statistical analysis of data was conducted.
# (§5) The present compounds which has a high growth inhibition activity on tumor cells positive expressing FLT3-ITD were selected for the determination of IC50 concentration on FLT3 wild tyoverexpressing cells RS4:11 and FLT3 wild-type normal expressing cells Jurkat. The specific test method is the same as that of test example 1.
# MOLM-13 (FLT3-ITD) = assay: In vitro growth inhibition of MOLM-13 tumor cells (MTT/CCK8); format: cell-based, Human; settings: Homo sapiens, MOLM-13; in vitro growth inhibition (or induction of apoptosis), cells cultured 3 to 5 days, MTT (CCK8); read-out: IC50 MOLM-13 (FLT3-ITD)
# Karpas 299 (NPM-ALK) = assay: In vitro growth inhibition of Karpas 299 tumor cells (MTT/CCK8); format: cell-based, Human; settings: Homo sapiens, KARPAS-299; in vitro growth inhibition (or induction of apoptosis), cells cultured 3 to 5 days, MTT (CCK8); read-out: IC50 Karpas 299 (NPM-ALK)
# Hep3B2 (FGFR3/4+++) = assay: In vitro growth inhibition of Hep3B2 tumor cells (MTT/CCK8); format: cell-based, Human; settings: Homo sapiens, Hep3B; in vitro growth inhibition (or induction of apoptosis), cells cultured 3 to 5 days, MTT (CCK8); read-out: IC50 Hep3B2 (FGFR3/4+++)
# H1581 (FGFR1 amp) = assay: In vitro growth inhibition of H1581 tumor cells (MTT/CCK8); format: cell-based, Human; settings: Homo sapiens, NCI-H1581; in vitro growth inhibition (or induction of apoptosis), cells cultured 3 to 5 days, MTT (CCK8); read-out: IC50 H1581 (FGFR1 amp)
# Jurkat = assay: In vitro growth inhibition of FLT3 wild-type normal expressing cells Jurkat; format: cell-based; settings: Homo sapiens, cells normally expressing FLT3 wild-type
# Description: as §1, §2, §3, §4, §5
# H1703 (PDGFRa amp) = assay: In vitro growth inhibition of H1703 tumor cells (MTT/CCK8); format: cell-based, Human; settings: Homo sapiens, NCI-H1703; in vitro growth inhibition (or induction of apoptosis), cells cultured 3 to 5 days, MTT (CCK8); read-out: IC50 H1703 (PDGFRa amp)
# KCL-22 (BCR-ABL) = assay: In vitro growth inhibition of KCL-22 tumor cells (MTT/CCK8); format: cell-based, Human; settings: Homo sapiens, KCL-22; in vitro growth inhibition (or induction of apoptosis), cells cultured 3 to 5 days, MTT (CCK8); read-out: IC50 KCL-22 (BCR-ABL)
# Kasumi-1 (KIT N822K) = assay: In vitro growth inhibition of Kasumi-1 tumor cells (MTT/CCK8); format: cell-based, Human; settings: Homo sapiens, Kasumi 1; in vitro growth inhibition (or induction of apoptosis), cells cultured 3 to 5 days, MTT (CCK8); read-out: IC50 Kasumi-1 (KIT N822K)
# KATO III (FGFR2 amp) = assay: In vitro growth inhibition of KATO III tumor cells (MTT/CCK8); format: cell-based, Human; settings: Homo sapiens, KATO III; in vitro growth inhibition (or induction of apoptosis), cells cultured 3 to 5 days, MTT (CCK8); read-out: IC50 KATO III (FGFR2 amp)
# SNU-16 = assay: In vitro growth inhibition of SNU-16 cells; format: cell-based; settings: Homo sapiens, FGFR2 amp
# Description: as §1, §2, §3, §4
# (§6) Mutations in the FGFR1-4 gene often occur in different types of cancer patients. In order to test the growth inhibition activity of the present compound against tumor cells expressing different FGFR variants, tumor cell lines expressing representative FGFR1-4 were selected for further determining the activity of compounds 25, 66, 38 and 95 of the present invention. BGJ398, a selective inhibitor of FGFR1-4, was used as the control compound. The specific test method is the same as test example 1.
# Cal-120 = assay: In vitro growth inhibition of Cal-120 cells; format: cell-based; settings: Homo sapiens, FGFR1 amp
# Description: as §1, §2, §3, §4, §6
# DMS114 = assay: In vitro growth inhibition of DMS114 cells; format: cell-based; settings: Homo sapiens, DMS-114, FGFR1 amp
# Description: as §1, §2, §3, §4, §6
# Huh-7 = assay: In vitro growth inhibition of Huh-7 cells; format: cell-based; settings: Homo sapiens, FGFR3+++, FGFR4 +++
# Description: as §1, §2, §3, §4, §6
# JHH-7 = assay: In vitro growth inhibition of JHH-7 cells; format: cell-based; settings: Homo sapiens, JHH7, FGFR3+++, FGFR4 +++
# Description: as §1, §2, §3, §4, §6
# JIMT-1 = assay: In vitro growth inhibition of JIMT-1 cells; format: cell-based; settings: Homo sapiens, FGFR1 amp, HER2 amp, PI3KCA C420R
# Description: as §1, §2, §3, §4, §6
# MDA-MB-453 = assay: In vitro growth inhibition of MDA-MB-453 cells; format: cell-based; settings: Homo sapiens, PI3KCA H1047R, FGFR4+++/Y367C
# Description: as §1, §2, §3, §4, §6
# AN3-CA = assay: In vitro growth inhibition of AN3-CA cells; format: cell-based; settings: Homo sapiens, FGFR2 mutant
# Description: as §1, §2, §3, §4, §6
# MFM-223 = assay: In vitro growth inhibition of MFM-223 cells; format: cell-based; settings: Homo sapiens, PI3KCA H1047R, FGFR1 amp, FGFR2 amp
# Description: as §1, §2, §3, §4, §6
# A375 = assay: In vitro growth inhibition of A375 cells; format: cell-based; settings: Homo sapiens, A-375, BRAF V600E, FGFR2 mutant
# Description: as §1, §2, §3, §4, §6
# RT112/84 = assay: In vitro growth inhibition of RT112/84 cells; format: cell-based; settings: Homo sapiens, FGFR3-TACC3
# Description: as §1, §2, §3, §4, §6
SMILES,IC50 (RS4:11) [nM],IC50 (MOLM-13 (FLT3-ITD)) [nM],IC50 (Karpas 299 (NPM-ALK)) [nM],IC50 (Hep3B2 (FGFR3/4+++)) [nM],IC50 (H1581 (FGFR1 amp)) [nM],IC50 (Jurkat) [nM],IC50 (H1703 (PDGFRa amp)) [nM],IC50 (KCL-22 (BCR-ABL)) [nM],IC50 (Kasumi-1 (KIT N822K)) [nM],IC50 (KATO III (FGFR2 amp)) [nM],further results
"COc1cc2nccc(Oc3ccc(NC(=O)Nc4cc(C(C)(C)C)n[nH]4)c(Cl)c3Cl)c2cc1C(N)=O [Compound 37, 4-{4-[3-(5-tert-butyl-2H-pyrazol-3-yl)-ureido]-2,3-dichloro-phenoxy}-7-methoxyquinolin-6-carboxamide]",139,0.97,52.3,9.6,4.73,408,6.44,0.498,2.05,0.19,
"COc1cc2nccc(Oc3ccc(NC(=O)Nc4cc(C(C)(C)C)on4)cc3Br)c2cc1C(N)=O [Compound 7, 4-{2-Bromo-4-[3-(5-tert-butyl-isoxazol-3-yl)-ureido]-phenoxy}-7-methoxyquinolin-6-carboxamide]",375,< 0.05,187,83.9,55.4,302,19.4,19.8,46,6.33,
"COc1cc2nccc(Oc3ccc(NC(=O)Nc4cc(C(C)(C)C)on4)cc3Cl)c2cc1C(N)=O [Compound 8, 4-{4-[3-(5-tert-butyl-isoxazol-3-yl)-ureido]-2-chloro-phenoxy}-7-methoxyquinolin-6-carboxamide]",370,< 0.05,142,45.6,19.5,288,17.5,18.7,35.1,2.93,
"COc1cc2nccc(Oc3ccc(NC(=O)Nc4cc(C(C)(C)C)on4)cc3F)c2cc1C(N)=O [Compound 9, 4-{4-[3-(5-tert-butyl-isoxazol-3-yl)-ureido]-2-fluoro-phenoxy}-7-methoxyquinolin-6-carboxamide]",750,< 0.05,352,47.6,9.59,409,18.5,35.8,144,1.39,
"COc1cc2nccc(Oc3ccc(NC(=O)Nc4cc(C(C)(C)C)on4)cn3)c2cc1C(N)=O [Compound 24, 4-{5-[3-(5-tert-butyl-isoxazol-3-yl)-ureido]-pyridin-2-yloxy}-7-methoxyquinolin-6-carboxamide]",> 1000,0.99,764,346,493,572,83.5,> 1000,> 1000,31,
"COc1cc2nccc(Oc3ccc(NC(=O)Nc4cc(C(C)(C)C)n[nH]4)cc3Cl)c2cc1C(N)=O [Compound 36, 4-{4-[3-(5-tert-butyl-2H-pyrazol-3-yl)-ureido]-2-chloro-phenoxy}-7-methoxyquinolin-6-carboxamide]",750,< 0.05,179,78.9,65.7,535,227,31.5,70.8,2.62,
"CCN1CCN(c2ccc(Nc3cc(N(C)C(=O)Nc4c(Cl)c(OC)cc(OC)c4Cl)ncn3)cc2)CC1 [BGJ398, reference compound]",,,> 1000,38.9,6.97,,> 1000,> 1000,> 1000,0.461,IC50 (SNU-16): 2.18 nM; IC50 (Cal-120): > 1000 nM; IC50 (DMS114): 6.97 nM; IC50 (Huh-7): 30.9 nM; IC50 (JHH-7): 31.8 nM; IC50 (JIMT-1): > 1000 nM; IC50 (MDA-MB-453): > 1000 nM; IC50 (AN3-CA): 62.1 nM; IC50 (MFM-223): > 1000 nM; IC50 (A375): > 1000 nM; IC50 (RT112/84): 8.12 nM
"COc1cc2nccc(Oc3ccc(NC(=O)Nc4cc(C(C)(C)C)on4)cc3)c2cc1C(N)=O [Compound 1, 4-{4-[3-(5-tert-butyl-isoxazol-3-yl)-ureido]-phenoxy}-7-methoxyquinolin-6-carboxamide]",188,< 0.05,394,282,16.1,521,9.45,64.7,90.1,1.28,
"COc1cc2nccc(Oc3ccc(NC(=O)Nc4cc(C(C)(C)C)n[nH]4)cc3C)c2cc1C(N)=O [Compound 35, 4-{4-[3-(5-tert-butyl-2H-pyrazol-3-yl)-ureido]-2-methyl-phenoxy}-7-methoxyquinolin-6-carboxamide]",> 1000,< 0.05,393,166,105,429,106,16.8,7.32,4.45,
"CNC(=O)c1cc2c(Oc3ccc(NC(=O)Nc4cc(C(C)(C)C)n[nH]4)cc3C)ccnc2cc1OC [Compound 52, 4-{4-[3-(5-tert-butyl-2H-pyrazol-3-yl)-ureido]-2-methyl-phenoxy}-7-methoxyquinolin-6-carboxylate acid methylamide]",> 1000,0.06,203,175,107,> 1000,62.4,7.11,3.83,3.28,
